Where a name gives a salt, the structure may show the parent alone.
What was measured:
[1] = biological target: T1, OGA (Homo sapiens, UniProt O60502); assay: OGA cellular assay (ICC detection of O-GlcNAcylated proteins in HEK293 cells inducible for P301L mutant human Tau); type: cell-based; conditions: 6 hours incubation; for Emax: HEK293, HEK293 cells inducible for P301L mutant human Tau, maximum = Thiamet G 200 uM; for EC50: HEK293 cells inducible for P301L mutant human Tau, read-out: Cellular hOGA, pEC50 (converted)
T1 construct: HEK293 cells inducible for P301L mutant human Tau (isoform 2N4R) were established at Janssen; endogenous in cells; host or cells: HEK293 cells inducible for P301L mutant human Tau (2N4R)
T1 sequence (O60502 1-916): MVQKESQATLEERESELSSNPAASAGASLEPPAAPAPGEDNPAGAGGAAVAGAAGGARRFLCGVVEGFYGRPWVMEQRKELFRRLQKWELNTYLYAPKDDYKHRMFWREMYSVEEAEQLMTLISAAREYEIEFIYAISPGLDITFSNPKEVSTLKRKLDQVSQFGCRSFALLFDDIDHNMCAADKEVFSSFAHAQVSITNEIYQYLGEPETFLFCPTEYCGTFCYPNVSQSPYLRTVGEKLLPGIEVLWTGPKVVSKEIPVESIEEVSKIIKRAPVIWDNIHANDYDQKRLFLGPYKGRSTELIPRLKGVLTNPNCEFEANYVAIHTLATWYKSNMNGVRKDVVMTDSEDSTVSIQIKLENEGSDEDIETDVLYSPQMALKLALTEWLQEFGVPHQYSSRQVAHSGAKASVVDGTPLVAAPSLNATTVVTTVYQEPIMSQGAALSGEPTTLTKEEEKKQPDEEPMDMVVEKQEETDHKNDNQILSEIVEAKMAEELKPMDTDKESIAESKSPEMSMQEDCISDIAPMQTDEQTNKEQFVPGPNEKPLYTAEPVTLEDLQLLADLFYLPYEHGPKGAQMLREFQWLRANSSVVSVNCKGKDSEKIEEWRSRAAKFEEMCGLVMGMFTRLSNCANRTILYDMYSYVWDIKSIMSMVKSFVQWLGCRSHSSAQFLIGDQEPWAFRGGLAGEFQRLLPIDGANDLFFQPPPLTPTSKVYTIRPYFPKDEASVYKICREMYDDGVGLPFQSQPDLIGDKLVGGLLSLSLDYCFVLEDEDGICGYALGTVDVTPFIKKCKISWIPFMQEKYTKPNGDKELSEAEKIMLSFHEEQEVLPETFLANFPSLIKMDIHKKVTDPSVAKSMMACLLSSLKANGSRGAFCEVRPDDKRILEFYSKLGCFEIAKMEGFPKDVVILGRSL
Outline: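 HEK293 cells with inducible P301L 2N4R Tau, seeded in low-glucose medium, were exposed to compounds for 6 hours (0.2% DMSO), then PFA-fixed and stained with CTD110.6. Imaging intensity at 488 nm measured O-GlcNAcylation, with Hoechst nuclei counts for toxicity. IC50s came from non-linear regression, with Thiamet G at 200 uM as maximum inhibition.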

[2] = biological target: T2, recombinant human Meningioma Expressed Antigen 5 (MGEA5), also referred to as O-GlcNAcase (OGA) (Homo sapiens, UniProt O60502); assay: OGA biochemical assay (inhibition of FM-GlcNAc hydrolysis, fluorescence); conditions: for Emax: read-out: Enzymatic Emax (%); for IC50: read-out: Enzymatic hOGA, pIC50 (converted)
T2 construct: Full length OGA enzyme was purchased at OriGene (cat #TP322411); purchased OriGene TP322411
T2 sequence (O60502 1-916): T1 sequence (O60502 1-916)
Outline: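 Full-length OGA at 2 nM was pre-incubated 60 min at room temperature with compound, then FM-GlcNAc at 100 uM final was added in citrate/phosphate buffer pH 7.2 with 0.005% Tween-20. After 6 h at room temperature, carbonate pH 11.0 stopped the reaction. Fluorescence read at 485/538 nm; IC50 and Hill coefficient from curve fit against no-inhibitor and saturating-standard controls.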

| Structure (SMILES) | Emax [1] | EC50 [1] | melting point | Emax [2] | IC50 [2] |
| --- | --- | --- | --- | --- | --- |
| Cc1cc(NC2CCN(C(C)c3nc4c(cc3F)OCCO4)CC2)cc(C)n1 (centres unmarked) [Compound 133] | 87% | 0.0501 µM | 250 °C | 97% | 0.0251 µM |
| Cc1cc(OC2CCN([C@@H](C)c3nc4c(cc3F)CCO4)CC2)cc(C)n1 (single isomer, unassigned) (as salt: HCl) [Compound 145] |  |  | 103.27 °C |  |  |
| Cc1cc(OC2(CF)CCN(C(C)c3ccc4c(n3)OCCO4)CC2)cc(C)n1 (centres unmarked) (as salt: HCl) [Compound 132] |  |  | 189.8 °C |  |  |
| Cc1cc(OC2CCN(C(C)c3ccc4c(n3)OCCO4)CC2)cc(OC(C)C)n1 (centres unmarked) (as salt: HCl) [Compound 124] |  |  | 196.6 °C |  |  |
| Cc1cc(OC2CCN(C(C)c3ccc4c(n3)OCCO4)CC2)cc(C(C)C)n1 (centres unmarked) (as salt: HCl) [Compound 130] |  |  | 186.4 °C |  |  |
| Cc1cc(OC2CCN([C@H](C)c3nc4c(cc3F)OCCO4)CC2)cc(C)n1 (single isomer, unassigned) (as salt: HCl) [Compound 148] |  |  | 255.75 °C |  |  |
| CCc1cc(OC2CCN(C(C)c3ccc4c(n3)OCCO4)CC2)cc(C)n1 (centres unmarked) (as salt: HCl) [Compound 129] |  |  | 66 °C |  |  |
| Cc1cc(OC2CCN(C(C)c3nc4c(cc3F)OCCO4)CC2)cnc1C (centres unmarked) [Compound 166] | 85% | 0.0631 µM |  | 98% | 0.01 µM |
| Cc1cc(OC2CCN(C(C)c3ccc4c(n3)OCCO4)CC2)cc(C2CC2)n1 (centres unmarked) (as salt: HCl) [Compound 125] |  |  | 171.4 °C |  |  |
| CC(c1ccc2c(n1)OCCO2)N1CCC(Oc2ccc(C(F)(F)F)nc2)CC1 (centres unmarked) [Compound 68] | 57% | 0.794 µM |  | 94% | 0.0794 µM |
| Cc1cc(OC2CCN(C(C)c3cnc4c(c3)OCCN4)CC2)cc(C)n1 (centres unmarked) [Compound 34] | 77% | 0.158 µM |  | 102% | 0.158 µM |
| Cc1cc(OC2CCN(C(C)c3nc4c(cc3F)OCCO4)CC2)nc(C)n1 (centres unmarked) [Compound 12] | 74% | 0.0794 µM |  | 99% | 0.0158 µM |
| Cc1cc(OC2CCN(C(C)c3ccc4c(n3)OCCO4)CC2)cc(C(C)C)n1 (centres unmarked) [Compound 130] | 59% | 0.245 µM |  | 100% | 0.0398 µM |
| CC(c1nc2c(cc1F)OCCO2)N1CCC(Oc2ccc(C3CC3)nc2)CC1 (centres unmarked) [Compound 164] | 72% | 0.0676 µM |  | 96% | 0.00794 µM |
| Cc1cc(CC2(F)CCN(C(C)c3ccc4c(n3)OCCO4)CC2)cc(C)n1 (centres unmarked) [Compound 73] | 18% | > 1 µM |  | 90% | 2 µM |
| Cc1cc(OC2CCN(C(C)c3nc4c(cc3F)OCCO4)CC2)c(Cl)c(C)n1 (centres unmarked) [Compound 65] | 101% | 0.0631 µM |  | 99% | 0.0126 µM |
| Cc1cc(OC2CCN([C@H](C)c3nc4nc(C)sc4cc3F)CC2)cc(C)n1 (single isomer, unassigned) [Compound 82] | 18% | > 1 µM |  | 97% | 0.631 µM |
| Cc1cccc(OC2CCN(C(C)c3ccc4c(n3)OCCO4)CC2)n1 (centres unmarked) [Compound 46] | 33% | > 1 µM |  | 98% | 0.158 µM |
| CC(c1ccc2c(n1)OCCO2)N1CCC(Oc2cnc(C3CCC3)nc2)CC1 (centres unmarked) [Compound 163] | 34% | > 1 µM |  | 92% | 0.126 µM |
| Cc1cc(OC2CCN([C@@H](C)c3nc4c(cc3F)OCCO4)CC2)cc(C)n1 (single isomer, unassigned) [Compound 149] | -2% | > 1 µM |  | 58% | 6.31 µM |

| Structure (SMILES) | Emax [1] | EC50 [1] | melting point | Emax [2] | IC50 [2] |
| --- | --- | --- | --- | --- | --- |
| Cc1ccc(OC2CCN(C(C)c3nc4c(cc3F)OCCO4)CC2)nc1 (centres unmarked) [Compound 165] | 72% | 0.316 µM |  | 94% | 0.0158 µM |
| Cc1ccc(OC2CCN(C(C)c3ccc4c(n3)OCCO4)CC2)cn1 (centres unmarked) (as salt: HCl) [Compound 41] |  |  | 226.7 °C |  |  |
| CC(c1nc2c(cc1F)OCCO2)N1CCC(Oc2ccc(C(=O)N(C(C)C)C(C)C)nc2)CC1 (centres unmarked) [Compound 123] | 59% | 0.1 µM |  | 93% | 0.0126 µM |
| Cc1cc(OC2CCN(C(C)c3cc4c(cn3)OCCO4)CC2)cc(C)n1 (centres unmarked) [Compound 29] | 7% | > 1 µM |  | 60% | 5.01 µM |
| Cc1cc(COC2CCN(C(C)c3ccc4c(n3)OCCO4)CC2)cc(C)n1 (centres unmarked) [Compound 89] | 63% | ~0.501 µM |  | 97% | 0.126 µM |
| Cc1cc(COC2CCN(C(C)c3ccc4c(n3)OCC4)CC2)cc(C)n1 (centres unmarked) [Compound 154] | 81% | 0.158 µM |  | 94% | 0.0398 µM |
| Cc1cnnc(OC2CCN(C(C)c3ccc4c(n3)OCCO4)CC2)c1 (centres unmarked) [Compound 77] | 35% | > 1 µM |  | 97% | 0.2 µM |
| CC(c1nc2c(cc1F)OCCO2)N1CCC(Oc2ccc(C(=O)N(C(C)C)C(C)C)nc2)CC1 (centres unmarked) (as salt: HCl) [Compound 123] |  |  | 139.7 °C |  |  |
| CC(c1ccc2c(n1)OCCO2)N1CCC(Oc2cncc(F)c2)CC1 (centres unmarked) [Compound 74] | 44% | > 1 µM |  | 99% | 0.1 µM |
| C[C@@H](c1ccc2c(n1)OCCO2)N1CCC(Oc2ccc(C(N)=O)nn2)CC1 (single isomer, unassigned) [Compound 106] | 48% | 0.631 µM |  | 95% | 0.126 µM |
| Cc1ccc(OC2CCN(C(C)c3ccc4c(n3)OCCO4)CC2)cn1 (centres unmarked) [Compound 41] | 74% | 0.501 µM |  | 99% | 0.0501 µM |
| Cc1cc(OCC2CCN(C(C)c3ccc4c(n3)OCCO4)CC2)cc(C)n1 (centres unmarked) [Compound 75] | 39% | > 1 µM |  | 99% | 0.398 µM |
| CC(c1ccc2c(n1)OCCO2)N1CCC(Oc2ncccc2C#N)CC1 (centres unmarked) [Compound 50] | 9% | > 1 µM |  | 95% | 1 µM |
| CC(c1nc2c(cc1F)OCCO2)N1CCC(Oc2ccc(C(F)(F)F)nn2)CC1 (centres unmarked) [Compound 39] | 73% | 0.316 µM |  | 101% | 0.02 µM |
| Cc1cnc(C)c(OC2CCN(C(C)c3nc4c(cc3F)OCCO4)CC2)n1 (centres unmarked) [Compound 87] | 62% | 0.355 µM |  | 97% | 0.0158 µM |
| Cc1cc(OC2CCN(C(C)c3nc4c(cc3F)OCCO4)CC2)cc(C#N)n1 (centres unmarked) [Compound 128] | 95% | 0.0501 µM |  | 102% | 0.00794 µM |
| CC(c1ccc2c(n1)OCCO2)N1CCC(Oc2cnc(Cl)c(F)c2)CC1 (centres unmarked) [Compound 69] | 68% | 0.501 µM |  | 95% | 0.0794 µM |
| COc1cc(OC2CCN([C@H](C)c3nc4nc(C)sc4cc3F)CC2)cc(C)n1 (single isomer, unassigned) [Compound 80] | 7% | > 1 µM |  | 96% | 0.631 µM |
| COc1cnccc1OC1CCN(C(C)c2ccc3c(n2)OCCO3)CC1 (centres unmarked) [Compound 98] | 47% | 0.501 µM |  | 94% | 0.2 µM |
| CC(c1nc2c(cc1F)OCCO2)N1CCC(Oc2ccc(C(F)(F)F)cn2)CC1 (centres unmarked) [Compound 158] | 77% | 0.251 µM |  | 99% | 0.0158 µM |

— patent US20210122763A1, “OGA INHIBITOR COMPOUNDS” (Janssen Pharmaceutica NV, priority 2018, published 2021)
